This note sets out measurements from ChEMBL document CHEMBL5244235, “Diarylpentanoids with antitumor activity: A critical review of structure-activity relationship studies” (Eur J Med Chem, 2020).

The term IC50 denotes the point on the concentration scale where inhibition reaches its midpoint. For orientation: GI50 means the concentration at which growth is held to half of that of the control. Lower therefore signals more potent growth inhibition.

For one experiment, the system named is P388. Briefly: Antiproliferative activity against mouse P388 cells assessed as cell growth inhibition. The experiment is classed as functional, cell-based.
In the next experiment the test system is L1210. Briefly: Antiproliferative activity against mouse L1210 cells assessed as cell growth inhibition. The experiment is classed as functional, cell-based.
Experiment [1] is described as follows: Antiproliferative activity against human Molt 4/C8 cells assessed as cell growth inhibition. The experiment is classed as functional, cell-based. Particulars: Molt4/C8.
The test system of another experiment is CCRF-CEM. Briefly: Antiproliferative activity against human CEM cells assessed as cell growth inhibition. The experiment is classed as functional, cell-based.
Another experiment deals with MDA-MB-231. Briefly: Growth inhibition of human MDA-MB-231 cells measured after 72 hrs by microplate reader analysis. The experiment is classed as functional.
Another experiment concerns RPMI-7951. Briefly: Growth inhibition of human RPMI-7951 cells measured after 72 hrs by microplate reader analysis. The experiment is classed as functional, cell-based. Particulars: for GI50: RPMI-7951, time 72 hrs.

Regarding `COc1ccc(/C=C2\CNC/C(=C\c3ccc(OC)cc3)C2=O)cc1`, the IC50 (with P388; in the experiment with L1210; in experiment [1]; with CCRF-CEM) was 810 nM in each case.

For the compound `C=CC(=O)N1C/C(=C\c2ccc(Cl)c(Cl)c2)C(=O)/C(=C/c2ccc(Cl)c(Cl)c2)C1`, the IC50 (in the experiment on P388; in the experiment with L1210; in experiment [1]; in the experiment with CCRF-CEM) was 280 nM throughout.

Regarding `C=CC(=O)N1C/C(=C\c2ccc(Cl)cc2)C(=O)/C(=C/c2ccc(Cl)cc2)C1`, the IC50 (with P388; in the experiment with L1210; in experiment [1]; with CCRF-CEM) was 280 nM throughout.

For the compound `O=C1/C(=C/c2ccccc2)CNC/C1=C\c1ccccc1`, the IC50 (in the experiment on P388; in the experiment with L1210; in experiment [1]; in the experiment with CCRF-CEM) was 810 nM in each case.

For `O=C1/C(=C/c2ccc(Cl)c(Cl)c2)CNC/C1=C\c1ccc(Cl)c(Cl)c1`, the IC50 (with P388; in the experiment on L1210; in experiment [1]; in the experiment with CCRF-CEM) was 810 nM in each case.

With `C=CC(=O)N1C/C(=C\c2ccc(OC)cc2)C(=O)/C(=C/c2ccc(OC)cc2)C1`, the IC50 (in the experiment on P388; with L1210; in experiment [1]; in the experiment with CCRF-CEM) was 280 nM each time.

On to `C=CC(=O)N1C/C(=C\c2ccccc2)C(=O)/C(=C/c2ccccc2)C1`, for which the IC50 (with P388; with L1210; in experiment [1]; in the experiment on CCRF-CEM) was 280 nM each time.

As for `C=CC(=O)N1C/C(=C\c2ccc([N+](=O)[O-])cc2)C(=O)/C(=C/c2ccc([N+](=O)[O-])cc2)C1`, the IC50 (in the experiment on P388; with L1210; in experiment [1]; in the experiment on CCRF-CEM) was 280 nM in each case.

For the compound `O=C1/C(=C/c2ccccc2)CN(C(=O)/C=C/c2ccccc2)C/C1=C\c1ccccc1`, the IC50 in the experiment on P388 is 221 nM; in the experiment with L1210 it was 5340 nM; in experiment [1] it was 1600 nM; in the experiment with CCRF-CEM, 1610 nM.

On to `C=CC(=O)N1C/C(=C\c2ccc(N(C)C)cc2)C(=O)/C(=C/c2ccc(N(C)C)cc2)C1`, for which the IC50 (in the experiment on P388; with L1210; in experiment [1]; in the experiment on CCRF-CEM) was 280 nM throughout.

Consider `CC(=O)Oc1ccccc1/C=C/C(=O)/C=C/c1ccccc1OC(C)=O`, for which the GI50 in the experiment on MDA-MB-231 was 1000 nM; in the experiment on RPMI-7951 it was 2300 nM.

With `O=C1/C(=C/c2ccc(Cl)cc2)CNC/C1=C\c1ccc(Cl)cc1`, the IC50 (in the experiment on P388; in the experiment with L1210; in experiment [1]; with CCRF-CEM) was 810 nM throughout.

As to `O=C1/C(=C/c2ccc([N+](=O)[O-])cc2)CNC/C1=C\c1ccc([N+](=O)[O-])cc1`, the IC50 (in the experiment on P388; in the experiment on L1210; in experiment [1]; in the experiment on CCRF-CEM) was 810 nM in each case.

Take `C=CC(=O)N1C/C(=C\c2ccc(F)cc2)C(=O)/C(=C/c2ccc(F)cc2)C1`: the IC50 (with P388; with L1210; in experiment [1]; in the experiment on CCRF-CEM) was 280 nM throughout.

Turning to `O=C1/C(=C/c2ccc(F)cc2)CNC/C1=C\c1ccc(F)cc1`, the IC50 (with P388; in the experiment with L1210; in experiment [1]; in the experiment on CCRF-CEM) was 810 nM each time.

Take `O=C1/C(=C/c2ccccc2F)COC/C1=C\c1ccccc1F`: the GI50 in the experiment with MDA-MB-231 and in the experiment with RPMI-7951 was 800 nM in each case.

For the compound `COc1ccccc1/C=C/C(=O)/C=C/c1ccccc1OC`, the GI50 in the experiment with MDA-MB-231 was found to be 1000 nM; in the experiment with RPMI-7951 it was 2300 nM.

As for `CN(C)c1ccc(/C=C2\CNC/C(=C\c3ccc(N(C)C)cc3)C2=O)cc1`, the IC50 (in the experiment with P388; in the experiment on L1210; in experiment [1]; in the experiment on CCRF-CEM) was 810 nM throughout.

In the case of `Cc1ccc(C(=O)/C=C/c2ccc(C(=O)N3C/C(=C\c4ccccc4)C(=O)/C(=C/c4ccccc4)C3)cc2)cc1C`, the IC50 in the experiment with P388 was 221 nM; in the experiment with L1210, 5340 nM; in experiment [1] it was 1600 nM; with CCRF-CEM it was 1610 nM.

`O=C1/C(=C/c2ccccc2)CN(C(=O)/C=C/c2ccc3c(c2)OCO3)C/C1=C\c1ccccc1`: the IC50 in the experiment with P388 was 221 nM; in the experiment with L1210 it was 5340 nM; in experiment [1], 1600 nM; in the experiment with CCRF-CEM, 1610 nM.

Regarding `O=C1/C(=C/c2ccccc2F)CNC/C1=C\c1ccccc1F`, in the experiment on MDA-MB-231, the GI50 was 800 nM. Also, the midpoint of inhibition in the experiment with RPMI-7951 (RPMI-7951, 72 h), the IC50, lay at 700 nM.

With `O=C1/C(=C/c2ccccc2)CN(C(=O)c2ccc(/C=C/C(=O)c3ccc([N+](=O)[O-])cc3)cc2)C/C1=C\c1ccccc1`, the results for the IC50 (with L1210; in experiment [1]; in the experiment on CCRF-CEM) were 5340 nM, 1600 nM and 1610 nM, respectively.

Regarding `O=C1/C(=C/c2ccccc2)CN(C(=O)c2ccc(/C=C/C(=O)c3ccccc3)cc2)C/C1=C\c1ccccc1`, the IC50 in the experiment with P388 was 221 nM; with L1210, 5340 nM; in experiment [1], 1600 nM; in the experiment with CCRF-CEM it was 1610 nM.

In the case of `O=C1/C(=C/c2ccccc2O)COC/C1=C\c1ccccc1O`, the GI50 in the experiment on MDA-MB-231 and in the experiment with RPMI-7951 was 800 nM each time.

For the compound `O=C1/C(=C/c2ccccc2)CN(C(=O)c2ccc(/C=C/C(=O)c3ccc(Cl)c(Cl)c3)cc2)C/C1=C\c1ccccc1`, the IC50 in the experiment with P388 worked out at 221 nM; with L1210 it was 5340 nM; in experiment [1] it was 1600 nM; in the experiment on CCRF-CEM, 1610 nM.

Regarding `O=C1/C(=C/c2ccccc2)CN(C(=O)c2ccc(/C=C/C(=O)c3ccc(O)cc3)cc2)C/C1=C\c1ccccc1`, the IC50 in the experiment with P388 turned out to be 221 nM; in experiment [1] it was 1600 nM; with CCRF-CEM, 1610 nM.

In the case of `O=C1/C(=C/c2ccccc2)CN(C(=O)/C=C/c2ccc(Cl)cc2)C/C1=C\c1ccccc1`, the IC50 in the experiment on P388 was 221 nM; in the experiment with L1210 it was 5340 nM; in experiment [1], 1600 nM; in the experiment on CCRF-CEM, 1610 nM.

For the compound `O=C1/C(=C/c2ccccc2)CN(C(=O)/C=C/c2ccc([N+](=O)[O-])cc2)C/C1=C\c1ccccc1`, the IC50 in the experiment on P388 was found to be 221 nM; with L1210 it was 5340 nM; in experiment [1], 1600 nM; in the experiment on CCRF-CEM, 1610 nM.

With `Cc1ccc(/C=C/C(=O)N2C/C(=C\c3ccccc3)C(=O)/C(=C/c3ccccc3)C2)cc1`, the IC50 with P388 was found to be 221 nM; with L1210, 5340 nM; in experiment [1] it was 1600 nM; with CCRF-CEM, 1610 nM.

On to `COc1ccc(/C=C/C(=O)N2C/C(=C\c3ccccc3)C(=O)/C(=C/c3ccccc3)C2)cc1`, for which the IC50 in the experiment with P388 is 221 nM; with L1210, 5340 nM; in experiment [1], 1600 nM; with CCRF-CEM, 1610 nM.

In the case of `Cc1ccc(C(=O)/C=C/c2ccc(C(=O)N3C/C(=C\c4ccccc4)C(=O)/C(=C/c4ccccc4)C3)cc2)cc1`, the IC50 was 221 nM with P388, 5340 nM in the experiment on L1210, 1600 nM in experiment [1] and 1610 nM in the experiment on CCRF-CEM.

Regarding `COc1ccc(C(=O)/C=C/c2ccc(C(=O)N3C/C(=C\c4ccccc4)C(=O)/C(=C/c4ccccc4)C3)cc2)cc1OC`, the IC50 stood at 221 nM in the experiment on P388, 5340 nM in the experiment on L1210, 1600 nM in experiment [1] and 1610 nM with CCRF-CEM.

Take `COc1ccc(C(=O)/C=C/c2ccc(C(=O)N3C/C(=C\c4ccccc4)C(=O)/C(=C/c4ccccc4)C3)cc2)cc1`: the IC50 in the experiment on P388 was 221 nM; in the experiment on L1210, 5340 nM; in experiment [1], 1600 nM; with CCRF-CEM, 1610 nM.

As for `COc1ccc(/C=C/C(=O)N2C/C(=C\c3ccccc3)C(=O)/C(=C/c3ccccc3)C2)cc1OC`, the IC50 was 221 nM with P388, 5340 nM with L1210, 1600 nM in experiment [1] and 1610 nM in the experiment on CCRF-CEM.

For the compound `COc1cc(/C=C/C(=O)N2C/C(=C\c3ccccc3)C(=O)/C(=C/c3ccccc3)C2)cc(OC)c1OC`, the IC50 with P388 stood at 221 nM; in the experiment with L1210 it was 5340 nM; in experiment [1], 1600 nM; in the experiment on CCRF-CEM it was 1610 nM.

Consider `O=C1/C(=C/c2ccccc2)CN(C(=O)c2ccc(/C=C/C(=O)c3ccc(Cl)cc3)cc2)C/C1=C\c1ccccc1`, for which the IC50 in the experiment on P388 was 221 nM; with L1210, 5340 nM; in experiment [1] it was 1600 nM; with CCRF-CEM, 1610 nM.

For the compound `O=C1/C(=C/c2ccccc2)CN(C(=O)/C=C/c2ccc(Cl)c(Cl)c2)C/C1=C\c1ccccc1`, the IC50 stood at 221 nM with P388, 5340 nM in the experiment on L1210, 1600 nM in experiment [1] and 1610 nM in the experiment with CCRF-CEM.
